From US10087404B2, “Biological corrosion inhibitor for metals” (KURARAY CO., LTD., priority 2014, dated 2018)

Columns and labels:
[1] = test system: strain Methanococcus maripaludis KA-1; test: Biological corrosion suppression test (eluted iron concentration from iron flake); type: cell-based; details: 37° C., eluted iron measured at 7, 14, 21 and 28 days
Method: A biological corrosion suppression test of 3-Methylglutaraldehyde was performed as follows.
The liquid A was purged with a N2 gas for approximately 10 minutes and heated in an autoclave at 121° C. for 20 minutes, and then the liquid C, liquid E, liquid S, and liquid V were added thereto. 20 ml of the resulting mixture liquid was introduced into each of vials containing a sterilized iron flake (0.08 g of iron foil (10 mm length×10 mm width×0.1 mm thickness: Sigma-Aldrich 356808-G)). Each vial was purged with a gas (CO2 gas was mixed into N2 gas so as to give final concentration of 20% CO2 gas) for 5 minutes and then quickly closed with a butyl rubber cap, and the cap was fixed securely with an aluminum seal. After that, 0.5 ml (10^6 to 10^9 cells/ml) of the strain Methanococcus maripaludis KA-1 was added with a syringe, and 3-methylglutaraldehyde was further added so as to give the concentration shown in FIG. 1. Each vial was allowed to stand at 37° C., and the concentration of eluted iron was measured at 7 days, 14 days, 21 days, and 28 days for checking the progress of the biological corrosion of the iron flake. […]

[2] = Contact of acetal compound A with hydrochloric acid aqueous solution pH 4.0, analysed by gas chromatography; type: physicochemical; details: nitrogen atmosphere
Method: Hydrochloric acid was added to distilled water to adjust the pH to 4.0, thereby preparing a hydrochloric acid aqueous solution. To 100 g of the hydrochloric acid solution was added 2.0 g of an acetal compound represented by the following formula:
[drawing 5] (hereinunder, referred to as acetal compound A), and the mixture was stirred at 80° C. under nitrogen atmosphere. After 1 hour, a part was taken and analyzed by a gas chromatography. As a result, it was confirmed that 97.2% of the acetal compound A was consumed and 3-methylglutaraldehyde was produced at 82.6%. [Conditions of Gas Chromatography]
Hydrochloric acid was added to distilled water to adjust the pH to 4.0, thereby preparing a hydrochloric acid aqueous solution. To 100 g of the hydrochloric acid solution was added 2.0 g of the acetal compound A, and the mixture was stirred at 30° C. under nitrogen atmosphere. After 50 hours, a part was taken and analyzed by a gas chromatography in the same manner as in Example 3. As a result, it was confirmed that 52.5% of the acetal compound A was consumed and 3-methylglutaraldehyde was produced at 47.3%.

Row | acetal compound A consumed ([2]; hydrochloric acid aqueous solution pH 4.0, 30° C., after 50 hours) [%] | acetal compound A consumed ([2]; hydrochloric acid aqueous solution pH 4.0, 80° C., after 1 hour) [%] | SMILES | addition concentration at which the concentration of eluted iron was suppressed to a sufficiently low level [1] [ppm]
1 |  |  | CC(CC=O)CC=O [3-methylglutaraldehyde] | 1
2 | 52.5 | 97.2 | CC(CC=O)CC1OCCO1 (stereo not shown) [acetal compound A] | 
3 |  |  | O=CCCCC=O [glutaraldehyde, reference compound] | 100
